1 compound from US20250017889A1, “INHIBITORS OF P1B-TYPE ATPASES” (THE CURATORS OF THE UNIVERSITY OF MISSOURI, priority 2021, published 2025) can be followed below.

Each structure is given as a SMILES string.

The nature of this data set: in vitro. It counts as cell-based. To be noted: mouse. On the procedure: To test this hypothesis, a control compound was generated in which the sulfur atom in the thioamide was replaced with oxygen to generate a corresponding amide (MKV3-D1). […] 20C is a graph of the relationship between tyrosinase activity and compound concentration. […] 20D is a graph of the relationship between the survival of 4T1 breast cancer cells and compound concentration in the presence or absence of 10 μM copper.
Initial structural analysis focused on the importance of the sulfur in MKV3. […] It was thought that MKV3 may provide a coordinating Cu(I) ligand as a mechanism of preventing copper movement into the channel domain. To test this hypothesis, a control compound was generated in which the sulfur atom in the thioamide was replaced with oxygen to generate a corresponding amide (MKV3-D1). […] Using another assay of ATP7A inhibition, the ability of MKV3-D1 to sensitize 4T1 breast cancer cells to copper was tested.

By CC50 is commonly meant the concentration giving 50% cytotoxicity. A high value points to lower toxicity to the cells. In the case of `N#CC(C(=O)Nc1cccc(C(F)(F)F)c1)C(=S)Nc1ccccc1Cl` (stereo not shown) [MKV3], the half-maximal cytotoxic concentration (CC50) amounted to 63.1 µM.
